Assay results taken from US8604049B2, “4-dimethylamino-phenyl-substituted naphthyridines, and use thereof as medicaments” (Boehringer Ingelheim International GmbH, priority 2008, dated 2013).

target: T1, Recombinant human Syk (GST-Syk kinase fusion protein) (Homo sapiens, UniProt P43405); experiment: Syk Kinase Test (Kinase Glo luminescence); format: biochemical; settings: 1 μM test substance; 4 nM GST-Syk; read-out: SYK inh % at 1 μM
T1 construct: made in house
Protocol: The catalytic activity of the GST-Syk kinase fusion protein was determined using the Kinase Glo® Luminescence Kinase test of Messrs Promega. In this homogeneous test the amount of ATP remaining after the kinase reaction has been carried out is quantified by a luciferin-luciferase reaction using luminescence. The luminescence signal obtained correlates with the amount of ATP still present and thus correlates inversely with the activity of the protein kinase.
GST-Syk was diluted to 6.0 nM in the test buffer and 10 μl of this dilution were used in the kinase test (final concentration of Syk=4 nM in a total volume of 15 μl).
Positive controls are the reaction mixtures that contain no test substance; negative controls are reaction mixtures that contain no kinase.
After 60 minutes, 10 μl Kinase-Glo® solution (Promega, Cat. #V6712) (heated to ambient temperature) are added to each well and incubation is continued for a further 15 minutes at ambient temperature.
Data Evaluation and Calculation:
The output file of the “MicroBeta TRILUX” is a text file that contains the well number and measurements obtained. […] Then from this the % inherent value for the measurement of each substance concentration was calculated using an “MS-Excel—VB macro”. […] The IC50 values were calculated from the % inhibition values using “GraphPadPrism” software (Version 5) (GraphPad Software Inc.).

inhibition at 1 µM [%] | Compound
85.2 | Cc1cc(-c2cc3ncccc3c(NCCc3cn[nH]c3)n2)ccc1N(C)C [Example 6]
71.9 | Cc1cc(-c2cc3ncccc3c(O[C@H]3CC[C@H](O)CC3)n2)ccc1N(C)C [Example 2]
85.2 | Cc1cc(-c2cc3ncccc3c(O[C@H]3CC[C@@H](O)CC3)n2)ccc1N(C)C [Example 1]

same assay, conditions: read-out: SYK inh % at 1 μM

Compound | inhibition at 1 µM [%]
Cc1cc(-c2cc3ncccc3c(NC3CC3)n2)ccc1N(C)C [Example 20, 5-(cyclopropylamino)-7-(4-dimethylamino-3-methylphenyl)-[1,6]naphthyridine] | 90.2
Cc1cc(-c2cc3ncccc3c(-n3cc(CCO)cn3)n2)ccc1N(C)C [Example 12, 5-(4-hydroxyethyl-pyrazolyl)-7-(4-dimetyhlamino-3-methylphenyl)-[1,6]naphthyridine] | 105
Cc1cc(-c2cc3ncccc3c(N3CC[C@@H](CN)C3)n2)ccc1N(C)C [Example 3, 5-(aminomethylpyrrolidin-1-yl)-7-(4-dimethylamino-3-methylphenyl)-[1,6]naphthyridine] | 88.2
COc1nc(-c2ccc(N(C)C)c(C)c2)cc2ncccc12 [Example 17, 5-methoxy-7-(4-dimethylamino-3-methylphenyl)-[1,6]naphthyridine] | 73.2
